Assay results published in patent publication US20210121493A1, “METHODS FOR TREATING LIVER DISEASES” (Cedars-Sinai Medical Center, priority 2017, published 2021).
“And” between values parts separate entries of the source, which are not always exact repeats. Identical values can stand only once.

What was measured:
HepG2 cell line = test: Growth of HepG2 cells by BrdU incorporation; assay type: cell-based, human
Protocol: HepG2 cells were treated with 100 μM SAMe, 10 μM OCA individually or combined for 24 hours. Growth was determined using BrdU incorporation. SAMe was mixed in saline and OCA was mixed in DMSO (0.1% final), which yielded the same values. As shown in Table 1 and FIG. 2, while OCA alone induced growth of the cancer cell line, SAMe inhibited growth of the cancer cell line even in the presence of OCA. SAMe, OCA and SAMe+OCA were 58.65%, 124.05% and 89.5%, respectively, of their respective controls.
(§1) HepG2 (immortalized cell line consisting of human liver carcinoma cells) cells were treated with 100 μM SAMe, 10 nM GW4064 individually or combined for 24 hours. Growth was determined using BrdU incorporation. SAMe was mixed in saline and GW4064 was mixed in DMSO (0.1% final), which yielded the same values. As shown in Table 2 and FIG. 3, while GW4064 alone induced growth of the cancer cell line, SAMe inhibited growth of the cancer cell line even in the presence of GW4064. SAMe, GW4064 and SAMe+GW4064 were 75.52%, 155.70% and 116.97%, respectively, of their respective controls.
as §1, with “Tropifexor” for “GW4064”, “Tropifexor.” for “GW4064.”, “SAMe+Tropifexor” for “SAMe+GW4064”, “151.04%” for “155.70%”, “114.77%,” for “116.97%,”

[1] = tested on: MzChA-1 (cholangiocarcinoma) cells or HepG2 cells; test: xenograft mice models, tumor volume; assay type: in vivo; settings: SAMe 100 mg/kg/day orally
Protocol: Mice were injected with MzChA-1 (cholangiocarcinoma) cells or HepG2 (immortalized cell line consisting of human liver carcinoma cells) cells. In mice treated with OCA, 30/mg/kg/day of OCA was administered orally. In mice treated with SAMe, 100 mg/kg/day was administered orally.

MAFG = test: expression of the oncogene MAFG
[2] = HepG2, 10 nM Tropifexor, 24 hours
[3] = HepG2, 10 nM Tropifexor, 24 hours, listed as Tropi
[4] = HepG2, 10 μM OCA in DMSO, 24 hours
[5] = HepG2, 100 μM SAMe in saline, 24 hours
[6] = HepG2, 100 μM SAMe, 24 hours (Example 2)

## O=C(O)c1cc(F)c2nc(N3[C@@H]4CC[C@H]3C[C@@H](OCc3c(-c5ccccc5OC(F)(F)F)noc3C3CC3)C4)sc2c1 [Tropifexor]
HepG2 cell line; [2]
  BrdU Incorporation OD540 nm, AVE: 0.1457
  BrdU Incorporation, % of respective controls: 151.04%
HepG2 cell line; [3]
  BrdU Incorporation OD540 nm, single readings: 0.153 and 0.121 and 0.134 and 0.125 and 0.105 and 0.173 and 0.202
  BrdU Incorporation, % of respective controls: 151.0363%

## CC(C)c1onc(-c2c(Cl)cccc2Cl)c1COc1ccc(/C=C/c2cccc(C(=O)O)c2)c(Cl)c1 [GW4064]
HepG2 cell line; HepG2, 10 nM GW4064, 24 hours
  BrdU Incorporation OD540 nm, AVE: 0.1502
  BrdU Incorporation, % of respective controls: 155.70%
HepG2 cell line; HepG2, 10 nM GW4064, 24 hours, listed as GW
  BrdU Incorporation, % of respective controls: 155.6995%

## CC[C@H]1[C@@H](O)[C@@H]2[C@H](CC[C@]3(C)[C@@H]([C@H](C)CCC(=O)O)CC[C@@H]23)[C@@]2(C)CC[C@@H](O)C[C@@H]12 [OCA, 6α-ethyl-chenodeoxycholic acid]
HepG2 cell line; [4]
  BrdU incorporation, Ave: 0.18
  BrdU incorporation, single readings: 0.181 and 0.175 and 0.202 and 0.186 and 0.162 and 0.177
HepG2 cell line; HepG2, 10 μM OCA, 24 hours
  BrdU Incorporation, % of respective controls: 124.05%

## C[S+](CC[C@H](N)C(=O)O)C[C@H]1O[C@@H](n2cnc3c(N)ncnc32)[C@H](O)[C@@H]1O (stereo partly drawn) [SAMe, S-adenosylmethionine]
[1]
  tumor volume versus control group: lower than the control group
HepG2 cell line; [5]
  BrdU incorporation, Ave: 0.09
  BrdU incorporation, single readings: 0.103 and 0.089 and 0.101 and 0.055 and 0.075
HepG2 cell line; HepG2, 100 μM SAMe, 24 hours (Example 1)
  BrdU Incorporation, % of respective controls: 58.65%
HepG2 cell line; [6]
  BrdU Incorporation OD540 nm, AVE: 0.07287
  BrdU Incorporation OD540 nm, single readings: 0.065 and 0.066 and 0.064 and 0.072 and 0.059 and 0.113 and 0.08
  BrdU Incorporation, % of respective controls: 75.52%
MAFG
  effect on expression of MAFG: decreases expression of MAFG
